From the NIST ThermoML archive (doi:10.1016/j.fluid.2010.05.013)
± gives the expanded uncertainty stated by the source.

Details: visual observation

SMILES	Normal melting temperature (Metastable crystal)	Normal melting temperature (Crystal)
CCn1cc[n+](C)c1.O=S(=O)([N-]S(=O)(=O)C(F)(F)F)C(F)(F)F	-17.00 ± 2 °C	–
CC(O)C(=O)O (stereo not drawn) [2-hydroxypropanoic acid]	–	17 ± 0.17 °C
CCC(=O)O [propanoic acid]	–	-20.83 ± 0.17 °C
